In patent US20050234073A1, “Methods of inhibiting inflammation” (priority 2003, published 2005):

What was measured:
[1] = test system: splenocytes, CD11c-positive splenic DCs and BMDCs; test: MHC class II-restricted presentation of ovalbumin to OT-II CD4+ T cells (IL-2 ELISA); type: cell-based, mouse
Procedure: FIG. 17F is a bar chart showing 11-2 production of CD11c^+ splenocytes incubated for 24 hours with BMS212122 or bone marrow derived dendritic cells incubated for 3 days with BMS212122 were washed and co cultured with 100 μg/mL ovalbumin and 100,000 CD4^+ cells from an OT-II transgenic mouse. IL-2 concentrations were measured by ELISA of 24 hour culture supernatants.
APCs were incubated with 100 ng/mL α-galcer (kindly provided by Dr. H. Ploegh) for 3 hours, washed three times in PBS and aliquoted into a 96 well plate at 10^6 cells/mL. DN32 cells were added at 1:1 E:T ratio unless otherwise indicated. CD4^+ cells were isolated from spleens of OT-II transgenic mice using positive selection on CD4 magnetic beads (Miltenyi Biotec) and incubated with APCs and 100 μg/mL ovalbumin. The 24.8 NKT cell line was incubated with APCs in the absence of added antigen at E:T=2:1 unless otherwise indicated. Mouse IL-2 production was assessed by ELISA (OptEIA, BD PharMingen) of 24 or 40 hour culture supernatants. APCs were treated with BMS212122 (10 uM dissolved in DMSO; kindly provided by Bristol Myers Squibb, New Jersey) as indicated and washed prior to addition of T or NKT cells. […]

[2] = test system: moDCs; test: Flow cytometry of surface CD1d and MHC class I on human monocyte-derived DCs; type: cell-based; details: moDCs after 5 days in presence of inhibitor
Text: FIG. 20F is a series of flow cytometric analysis showing surface staining of human monocyte-derived DCs were stained with 42.1 (CD1d), anti-HLA-A,B,C (MHC class I), or isotype control antibodies (dashed lines) after 4 days of differentiation in the presence of BMS212122 (gray lines) or vehicle control (black lines).
Bone marrow was extracted from the femurs of C57BL6 or MTPmx1cre mice, washed once in PBS and resuspended in R10 supplemented with culture supernatant from murine GM-CSF transfected cells for a final concentration of 200 U/mL GM-CSF. BMDCs were then cultured in bacteriological plates for 12-14 days as described. Differentiated cells were harvested by gentle pipetting, washed in PBS, and analyzed by flow cytometry for surface expression of CD11c and I-A^b. […] After 5 days cells were dislodged by gentle pipetting, analyzed by flow cytometry and assayed for antigen presentation.
Mouse cells were stained using the following antibodies: FITC-conjugated α-CD1d (1B1, PharMingen); PE-conjugated α-CD11c (HL3, PharMingen); FITC-conjugated α-1-A^d (AMS-32.1, PharMingen); PE-conjugated α-CD69 (H1.2F3, PharMingen); PE-conjugated α-B220 (RA3-6B2, PharMingen). […] Staining was performed in the presence of Via-Probe (PharMingen) and analyzed with a FACSort flow cytometer (Becton Dickinson). […]

For `Cc1ccc2c(nc(C)n2CCCCC2(C(=O)NCC(F)(F)F)c3ccccc3-c3ccccc32)c1NC(=O)c1ccccc1-c1ccc(C(F)(F)F)cc1` [BMS212122, 9-[4-[2,5-Dimethyl-4-[[[4′-(trifluoromethyl)[1,1′-biphenyl]-2-yl]carbonyl]amino]-1H-benzimidazol-1-yl]butyl]-N-(2,2,2-trifluoroethyl)-9H-fluorene-9-carboxamide], the “presentation of ovalbumin to CD4+ MHC class II-restricted ovalbumin-specific T cells” value ([1]; CD11c-positive splenic DCs and BMDCs, inhibitor-treated) was “efficient presentation”, the “splenocyte presentation of ovalbumin to MHC class II-restricted T cell line OT-II” value ([1]; splenocytes, 24 hours inhibitor) was “no effect” and the “surface CD1d mean fluorescence intensity” value ([2]; vehicle 4.2, p<0.05) was 3.3. The “MHC class I mean fluorescence intensity” value ([2]; vehicle 70) was 76.
